Laboratory results published in US4638070A, “Heterocyclic amino-alcohol derivatives” (Continental Pharma, priority 1980, dated 1987).

Experiments:
[1] = Acute toxicity, oral, LD50 (Litchfield and Wilcoxon); conditions: mouse, in vivo, fasted male mice, confidence limits p=95% in brackets
Protocol: (1) The acute toxicity was determined on fasted male mice. The tested substances were orally administered and LD50 values (lethal dose for 50% of animals) were calculated according to the method of Litchfield and Wilcoxon (J. Pharmacol. exp. Ther. 96, 94-113, 1949). These LD50 values are given in mg/kg and also, when possible, with their confidence limits for p=95%.

[2] = tested on: unanaesthetized, hypertension-suffering rat; experiment: Antihypertensive activity (systolic arterial pressure), oral; type: in vivo; conditions: 60 mg/kg, hypertensive rat, 3 hours
Protocol: (2) The antihypertensive activity was measured on unanaesthetized, hypertension-suffering rat. The tested substances were orally given at a rate of 60 mg/kg. The systolic arterial pressure was measured every 30 minutes for 2 hours before and for 3 hours after the tested product was given. Results are expressed as follows: […]
O: no reduction of arterial pressure.
+: reduction lower than 10 mm Hg.
++: reduction of 10 to 20 mm Hg.
+++: reduction higher than 20 mm Hg.

femoral artery = experiment: Vasodilator activity, femoral artery (technique of perfused paw); type: in vivo; parameters: key: O: no action; +: slight activity; ++: effect equal to half the effect of papaverine; +++: effect equal to that of papaverine; ++++: effect higher than that of papaverine; conditions: intra-arterial, 30 mg/kg, anaesthetized dog, vs papaverine at same dose
Protocol: (3) The vasodilator activity was measured at the level of femoral artery on anaesthetized dog (technique of perfused paw). The tested substances were given intra-arterially at the rate of 30 mg/kg. Results are expressed with respect to papaverine tested at the same dose.
++: effect equal to half the effect of papaverine.
+++: effect equal to that of papaverine.
++++: effect higher than that of papaverine.

[3] = tested on: guinea-pig ileum (acetylcholine contractions); experiment: Antispasmodic activity in vitro, contractions caused by acetylcholine; conditions: added 15 minutes before spasm-producing agent
Protocol: (§1) (4) The antispasmodic activity was measured in vitro, on guinea-pig ileum, the contractions of which were caused by histammne (Hist.), acetylcholine (Achol) or barium chloride (BaCl2). The tested products were added to perfusion bath 15 minutes before the spasm-producing agents.
(§2) The dose is given in micograms (μg) per ml of bath causing complete spasm inhibition.

[4] = tested on: guinea-pig ileum (histamine contractions); experiment: Antispasmodic activity in vitro, contractions caused by histamine; conditions: added 15 minutes before spasm-producing agent
Protocol: as §1, §2

Compound | LD50 [1] | ANTIHYPERTENSIVE ACTIVITY [2] | VASODILATOR ACTIVITY (femoral artery) | ANTISPASMODIC ACTIVITY ACHOL (dose causing complete spasm inhibition) [3] | ANTISPASMODIC ACTIVITY HIST. (dose causing complete spasm inhibition) [4]
CCCC(=O)OC(c1ccc2c(c1)CCS2)C(C)NCCCCc1ccccc1 (stereo not drawn) [No 130] | 3700 mg/kg | +++ (reduction higher than 20 mm Hg) |  |  | 
1-(2-methyl-2,3-dihydro-5-benzo[b]furanyl-2-[4-(p-chlorophenyl)butylamino]- 1-propanol [No 65] |  | +++ (reduction higher than 20 mm Hg) | ++++ | 1.7 μg per ml | 1.7 μg per ml
CCC(NCCCCc1ccccc1)C(O)c1ccc2c(c1)CCCS2 (stereo not drawn) [No 135] | > 4000 mg/kg | +++ (reduction higher than 20 mm Hg) |  |  | 
CCCCCCCCNC(C)C(OC(=O)C(C)C)c1ccc2c(c1)CCCS2 (stereo not drawn) [No 139] |  | +++ (reduction higher than 20 mm Hg) |  |  | 
CCCCCCCCNC(C)C(O)c1ccc2c(c1)SCCS2 (stereo not drawn) [No 101] |  | ++ (reduction of 10 to 20 mm Hg) | +++ | 0.8 μg per ml | 0.8 μg per ml
CC(CCCc1ccccc1)NC(C)C(O)c1ccc2c(c1)CCCS2 (stereo not drawn) [No 42] |  | +++ (reduction higher than 20 mm Hg) | +++ | 1.7 μg per ml | 1.7 μg per ml
CC(NCCCCc1ccccc1)C(OC(=O)C1CCC1)c1ccc2c(c1)CCS2 (stereo not drawn) [No 132] | 1900 mg/kg | +++ (reduction higher than 20 mm Hg) |  |  | 
CC1Cc2cc(C(O)C(C)NCCCc3ccccc3)ccc2S1 (stereo not drawn) [No 67] |  | +++ (reduction higher than 20 mm Hg) | +++ | 1.7 μg per ml | 1.7 μg per ml
Cc1ccc(CCCCNC(C)C(O)c2ccc3c(c2)CCCCS3)cc1 (stereo not drawn) [No 30] |  | +++ (reduction higher than 20 mm Hg) | +++ | 0.8 μg per ml | 1.7 μg per ml
Cc1ccc(CCNC(C)C(O)c2ccc3c(c2)CC(C)S3)cc1 (stereo not drawn) [No 71] |  | +++ (reduction higher than 20 mm Hg) | +++ | 0.8 μg per ml | 0.8 μg per ml
CC(NCCOc1ccc(C#N)cc1)C(O)c1ccc2c(c1)CCS2 (stereo not drawn) [No 85] |  | +++ (reduction higher than 20 mm Hg) | +++ | 16.7 μg per ml | 8.3 μg per ml
1-(2,3-dihydro-5-benzo[b]thienyl)-2-(4-phenylbutylamino)-1-propanol [Example 18] |  | +++ (reduction higher than 20 mm Hg) | ++++ | 0.33 μg per ml | 0.8 μg per ml
CC1Cc2cc(C(O)C(C)NCCCc3ccccc3)ccc2O1 (stereo not drawn) [No 69] |  | +++ (reduction higher than 20 mm Hg) | ++ | 16.7 μg per ml | 8.3 μg per ml
CC(=O)O[C@@H](c1ccc2c(c1)CCS2)[C@H](C)NCCCCc1ccccc1 (relative stereo) [No 113] |  | + (reduction lower than 10 mm Hg) |  |  | 
CC(C(O)c1ccc2c(c1)CCCS2)N1CCOC(c2ccccc2)C1C (stereo not drawn) [No 110] |  | + (reduction lower than 10 mm Hg) | 0 | 3.3 μg per ml | 0.8 μg per ml
CCCCOCCCNC(C)C(O)c1ccc2c(c1)CC(C)O2 (stereo not drawn) [No 74] |  | + (reduction lower than 10 mm Hg) | ++ | 8.3 μg per ml | 8.3 μg per ml
C#CC(C)(C)NC(C)C(O)c1ccc2c(c1)CCCS2 (stereo not drawn) [No 44] |  | +++ (reduction higher than 20 mm Hg) | ++ | 8.3 μg per ml | 16.7 μg per ml
CC(=O)OC(c1ccc2c(c1)CCS2)C(C)NCCCCc1ccccc1 (stereo not drawn) [No 112] |  | +++ (reduction higher than 20 mm Hg) | +++ | 3.3 μg per ml | 0.3 μg per ml
CC(NCCCCc1ccccc1)C(O)c1ccc2c(c1)CCCC2 (stereo not drawn) [No 171] |  | + (reduction lower than 10 mm Hg) | +++ | 0.8 μg per ml | 0.8 μg per ml
C[C@H](NCCCCc1ccccc1)[C@@H](O)c1ccc2c(c1)CCS2 (relative stereo) [No 98] |  | + (reduction lower than 10 mm Hg) |  |  | 
Cc1ccc(CCCCNC(C)C(O)c2ccc3c(c2)CCC3)cc1 (stereo not drawn) [No 166] |  | ++ (reduction of 10 to 20 mm Hg) | +++ | 0.8 μg per ml | 0.8 μg per ml
CC(C(O)c1ccc2c(c1)CCC2)N1CCOC(c2ccccc2)C1C (stereo not drawn) [No 177] |  | ++ (reduction of 10 to 20 mm Hg) |  | 1.7 μg per ml | 1.7 μg per ml
COCCOCCCNC(C)C(O)c1ccc2c(c1)CCCS2 (stereo not drawn) [No 81] |  | +++ (reduction higher than 20 mm Hg) | ++ | 16.7 μg per ml | 16.7 μg per ml
CC1Cc2cc(C(O)C(C)NCCCOc3ccccc3)ccc2S1 (stereo not drawn) [No 64] |  | +++ (reduction higher than 20 mm Hg) | +++ | 1.7 μg per ml | 1.7 μg per ml
CC(NCCCC(=O)c1ccc(F)cc1)C(O)c1ccc2c(c1)CCC2 (stereo not drawn) [No 175] |  | +++ (reduction higher than 20 mm Hg) | ++ | 0.8 μg per ml | 0.8 μg per ml
Cc1ccc(CCCCNC(C)C(O)c2ccc3c(c2)CC(C)O3)cc1 (stereo not drawn) [No 90] |  | +++ (reduction higher than 20 mm Hg) | ++++ | 1.7 μg per ml | 0.8 μg per ml
CC(CCCc1ccccc1)NC(C)C(O)c1ccc2c(c1)CCS2 (stereo not drawn) [No 63] | 1850 mg/kg |  | ++ | 0.8 μg per ml | 0.8 μg per ml
CC(NCCOc1ccc2c(c1)CCC2)C(O)c1ccc2c(c1)CCCS2 (stereo not drawn) [No 83] | > 4000 mg/kg |  | +++ | 0.8 μg per ml | 1.7 μg per ml
